The text below walks through data of patent US20240158370A1, “CK1 alpha AND DUAL CK1 alpha / GSPT1 DEGRADING COMPOUNDS” (Innovo Therapeutics, Inc., priority 2022, published 2024).

Bounds are passed on as bounds.

One assay concerns the target GSPT1 (Homo sapiens, UniProt P15170+Q96SW2). The assay can be described thus: HiBiT degradation assay, GSPT1, Procedure A. It counts as cell-based. Details: HiBit-GSPT1 KI HEK293(LgBit) Cells; host or cells: HEK293(LgBit) knock-in cells. The method, boiled down:
(§1)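 10-pt dose response, 10–0.005 μM, 0.1% DMSO; cells 1×10^6/ml in DMEM/10% FBS, 6 h, 37° C; HiBiT lytic detection, luminescence; DC50 + Ymin by 4-parameter fit.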
A general note: The HiBiT peptide binds its large partner to form an active luciferase.

Another assay has as its target T1, CK1α (Homo sapiens, UniProt P48729+Q96SW2).
T1 construct: CSNK1A1-HiBit KI HEK293(LgBit) Cells; host or cells: HEK293(LgBit) knock-in cells
The assay can be described thus: HiBiT degradation assay, CK1α, Procedure A. The class given is cell-based. The method, boiled down:
as §1

T1 sequence (P48729 whole entry): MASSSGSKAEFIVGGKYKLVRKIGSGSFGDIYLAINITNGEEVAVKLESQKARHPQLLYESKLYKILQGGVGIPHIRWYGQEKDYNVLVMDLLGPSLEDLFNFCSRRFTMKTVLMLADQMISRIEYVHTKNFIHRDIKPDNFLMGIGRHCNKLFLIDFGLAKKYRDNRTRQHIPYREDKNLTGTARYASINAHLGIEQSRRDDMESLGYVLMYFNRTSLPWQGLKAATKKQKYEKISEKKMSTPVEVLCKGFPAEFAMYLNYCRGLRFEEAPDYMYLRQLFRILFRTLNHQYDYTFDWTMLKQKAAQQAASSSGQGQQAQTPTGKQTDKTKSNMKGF
T1 sequence (Q96SW2 whole entry): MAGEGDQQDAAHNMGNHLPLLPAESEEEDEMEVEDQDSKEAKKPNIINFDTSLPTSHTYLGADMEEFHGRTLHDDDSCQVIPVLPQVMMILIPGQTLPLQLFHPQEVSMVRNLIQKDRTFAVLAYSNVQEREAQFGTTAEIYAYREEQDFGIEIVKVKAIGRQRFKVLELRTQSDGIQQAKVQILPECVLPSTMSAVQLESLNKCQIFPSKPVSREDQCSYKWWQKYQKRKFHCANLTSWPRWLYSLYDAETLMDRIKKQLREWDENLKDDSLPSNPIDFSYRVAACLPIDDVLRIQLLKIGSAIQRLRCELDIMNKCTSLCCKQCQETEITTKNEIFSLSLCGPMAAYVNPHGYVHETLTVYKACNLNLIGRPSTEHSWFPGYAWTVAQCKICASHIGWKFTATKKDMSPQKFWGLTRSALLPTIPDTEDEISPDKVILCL
T1 sequence (Q16531 whole entry partner): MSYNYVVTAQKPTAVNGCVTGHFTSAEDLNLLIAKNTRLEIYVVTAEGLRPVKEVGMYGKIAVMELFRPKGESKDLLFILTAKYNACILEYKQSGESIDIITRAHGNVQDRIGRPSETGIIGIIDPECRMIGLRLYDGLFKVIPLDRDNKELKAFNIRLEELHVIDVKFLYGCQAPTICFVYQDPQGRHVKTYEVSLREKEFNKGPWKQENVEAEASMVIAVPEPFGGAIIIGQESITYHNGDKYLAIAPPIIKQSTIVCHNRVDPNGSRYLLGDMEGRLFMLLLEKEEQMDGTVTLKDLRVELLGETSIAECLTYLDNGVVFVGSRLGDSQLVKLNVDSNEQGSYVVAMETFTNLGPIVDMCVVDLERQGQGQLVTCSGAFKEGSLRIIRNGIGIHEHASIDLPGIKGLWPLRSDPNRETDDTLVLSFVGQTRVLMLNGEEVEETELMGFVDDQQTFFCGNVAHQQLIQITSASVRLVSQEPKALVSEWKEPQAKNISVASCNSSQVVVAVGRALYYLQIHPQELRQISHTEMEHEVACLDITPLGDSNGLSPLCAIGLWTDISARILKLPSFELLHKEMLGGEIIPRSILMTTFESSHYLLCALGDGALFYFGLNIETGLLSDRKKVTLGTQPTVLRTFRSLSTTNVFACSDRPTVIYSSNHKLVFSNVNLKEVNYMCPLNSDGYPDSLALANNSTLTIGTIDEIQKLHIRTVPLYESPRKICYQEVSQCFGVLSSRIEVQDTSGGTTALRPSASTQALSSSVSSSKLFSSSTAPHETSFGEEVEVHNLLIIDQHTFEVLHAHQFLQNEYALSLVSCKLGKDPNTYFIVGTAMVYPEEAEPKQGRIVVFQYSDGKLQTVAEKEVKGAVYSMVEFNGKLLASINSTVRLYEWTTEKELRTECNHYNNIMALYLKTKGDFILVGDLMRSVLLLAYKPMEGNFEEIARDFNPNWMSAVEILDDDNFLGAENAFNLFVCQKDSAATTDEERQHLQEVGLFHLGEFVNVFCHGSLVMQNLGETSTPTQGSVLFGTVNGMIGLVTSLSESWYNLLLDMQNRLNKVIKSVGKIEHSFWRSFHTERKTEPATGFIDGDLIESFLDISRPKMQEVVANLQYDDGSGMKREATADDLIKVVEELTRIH
Sequence of GSPT1 (P15170 whole entry): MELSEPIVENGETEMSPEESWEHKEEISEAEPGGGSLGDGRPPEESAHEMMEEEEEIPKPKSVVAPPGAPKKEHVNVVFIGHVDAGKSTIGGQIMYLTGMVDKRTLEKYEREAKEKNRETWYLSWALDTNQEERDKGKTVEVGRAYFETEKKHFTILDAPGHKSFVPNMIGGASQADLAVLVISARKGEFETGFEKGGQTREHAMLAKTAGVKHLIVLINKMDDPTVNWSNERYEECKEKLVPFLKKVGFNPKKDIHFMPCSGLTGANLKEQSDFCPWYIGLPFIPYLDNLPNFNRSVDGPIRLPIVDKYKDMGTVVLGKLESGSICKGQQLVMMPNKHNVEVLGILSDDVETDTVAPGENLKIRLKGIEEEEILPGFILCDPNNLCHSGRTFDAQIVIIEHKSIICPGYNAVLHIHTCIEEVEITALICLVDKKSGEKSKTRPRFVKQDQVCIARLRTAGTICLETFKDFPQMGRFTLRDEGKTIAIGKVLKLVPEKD
Sequence of GSPT1 (Q96SW2 whole entry): as the sequence (Q96SW2 whole entry) above
Sequence of GSPT1 (Q16531 whole entry partner): as the sequence (Q16531 whole entry partner) above

Consider `COc1ccc(-c2c(-c3ccc4c(c3)CN(C3CCC(=O)NC3=O)C4=O)ncn2C)cn1` (stereo not shown) [Example 329], for which, on GSPT1 (six hours incubation), the DC50 is ≥ 25 nM and the “GSPT1 Ymin” value is on record as “E (E = >25-75% remaining)”. On CK1α (six hours incubation), the “CK1α Ymin” value was “C (C = 0-10% remaining)” and the DC50 is < 25 nM.
As to `Cn1cnc(-c2ccc3c(c2)CN(C2CCC(=O)NC2=O)C3=O)c1-c1ccc2cnn(C)c2c1` (stereo not shown) [Example 498], on GSPT1 (six hours), the DC50 was < 25 nM and the “GSPT1 Ymin” value was “F (F = >75-100% remaining)”. Moreover, at CK1α (six hours), the “CK1α Ymin” value is “D (D = >10- 25% remaining)” and the DC50 is < 25 nM.
For the compound `COc1ccc(-c2c(-c3ccc4c(c3)CN(C3CCC(=O)NC3=O)C4=O)cnn2C)cc1OCc1ccccc1` (stereo not shown) [Example 113], on GSPT1 (six hours incubation), the DC50 is ≥ 25 nM and the “GSPT1 Ymin” value is reported as “F (F = >75-100% remaining)”. Also, at CK1α (six hours incubation), the “CK1α Ymin” value is listed as “D (D = >10- 25% remaining)” and the DC50 is < 25 nM.
Turning to `CCCCc1ccc(-c2nc(-c3ccc4c(c3)CN(C3CCC(=O)NC3=O)C4=O)cn2C)cc1` (stereo not shown) [Example 577], at GSPT1 (six hours), the 50% degradation concentration (DC50) is < 25 nM and the “GSPT1 Ymin” value is “E (E = >25-75% remaining)”. Further, at CK1α (six hours), the “CK1α Ymin” value was “C (C = 0-10% remaining)” and the DC50 was < 25 nM.
Consider `Cn1cnc(-c2ccccc2)c1-c1ccc2c(c1)CN(C1CCC(=O)NC1=O)C2=O` (stereo not shown) [Example 21, 3-(5-(1-Methyl-4-phenyl-1H-imidazol-5-yl)-1-oxoisoindolin-2-yl)piperidine-2,6-dione], for which, on GSPT1 (six hours incubation), the DC50 is ≥ 25 nM and the “GSPT1 Ymin” value is reported as “C (C = 0-10% remaining)”. Besides, on CK1α (six hours incubation), the “CK1α Ymin” value is “E (E = >25-75% remaining)” and the DC50 is ≥ 25 nM.
Regarding `CN1CCC(c2c(-c3ccc4c(c3)CN(C3CCC(=O)NC3=O)C4=O)cnn2C)CC1` (stereo not shown) [Example 590], at GSPT1 (six hours), the DC50 was ≥ 25 nM and the “GSPT1 Ymin” value is listed as “F (F = >75-100% remaining)”. For the same compound, on CK1α (six hours), the “CK1α Ymin” value is reported as “E (E = >25-75% remaining)” and the DC50 was ≥ 25 nM.
On to `Cn1cnc(-c2ccc3c(c2)CN(C2CCC(=O)NC2=O)C3=O)c1-c1ccc2cccnc2c1` (stereo not shown) [Example 493], for which, on GSPT1 (six hours), the DC50 was ≥ 25 nM and the “GSPT1 Ymin” value is given as “F (F = >75-100% remaining)”. In addition, on CK1α (six hours), the “CK1α Ymin” value is listed as “D (D = >10- 25% remaining)” and the DC50 was < 25 nM.
For `COc1ccc(-c2c(-c3ccc4c(c3)CN(C3CCC(=O)NC3=O)C4=O)cnn2C(F)F)cc1` (stereo not shown) [Example 418, 3-(5-(1-(difluoromethyl)-5-(4-methoxyphenyl)-1H-pyrazol-4-yl)-1-oxoisoindolin-2-yl)piperidine-2,6-dione], on GSPT1 (six hours), the DC50 is ≥ 25 nM and the “GSPT1 Ymin” value is “E (E = >25-75% remaining)”. Moreover, on CK1α (six hours), the “CK1α Ymin” value is “C (C = 0-10% remaining)” and the DC50 is < 25 nM.
For the compound `Cn1ncc(-c2ccc3c(c2)CN(C2CCC(=O)NC2=O)C3=O)c1-c1ccc(S(C)(=O)=O)cc1` (stereo not shown) [Example 221], on GSPT1 (six hours incubation), the DC50 was ≥ 25 nM and the “GSPT1 Ymin” value is “F (F = >75-100% remaining)”. In addition, on CK1α (six hours incubation), the “CK1α Ymin” value is recorded as “E (E = >25-75% remaining)” and the DC50 is ≥ 25 nM.
For the compound `Cn1ncc(-c2ccc3c(c2)CN(C2CCC(=O)NC2=O)C3=O)c1-c1cnn(Cc2cccnc2)c1` (stereo not shown) [Example 464], at GSPT1 (six hours), the DC50 is ≥ 25 nM and the “GSPT1 Ymin” value is recorded as “F (F = >75-100% remaining)”. Further, at CK1α (six hours), the “CK1α Ymin” value is given as “F (F = >75-100% remaining)” and the DC50 is ≥ 25 nM.
As for `Cn1cnc(-c2ccc3c(c2)CN(C2CCC(=O)NC2=O)C3=O)c1-c1ccc2cc[nH]c2c1` (stereo not shown) [Example 525], at GSPT1 (six hours), the DC50 was < 25 nM and the “GSPT1 Ymin” value is reported as “C (C = 0-10% remaining)”. Further, on CK1α (six hours), the “CK1α Ymin” value is “C (C = 0-10% remaining)” and the DC50 is < 25 nM.
Take `Cc1sccc1-c1c(-c2ccc3c(c2)CN(C2CCC(=O)NC2=O)C3=O)cnn1C` (stereo not shown) [Example 66]: at GSPT1 (six hours incubation), the DC50 is ≥ 25 nM and the “GSPT1 Ymin” value is “F (F = >75-100% remaining)”. Also, on CK1α (six hours incubation), the “CK1α Ymin” value is recorded as “E (E = >25-75% remaining)” and the DC50 is ≥ 25 nM.
On to `Cn1nc(-c2ccc3c(c2)CN(C2CCC(=O)NC2=O)C3=O)cc1C1CCOCC1` (stereo not shown) [Example 538, 3-(5-(1-methyl-5-(tetrahydro-2H-pyran-4-yl)-1H-pyrazol-3-yl)-1-oxoisoindolin-2-yl)piperidine-2,6-dione], for which, on GSPT1 (six hours), the DC50 was ≥ 25 nM. For the same compound, on CK1α (six hours), the “CK1α Ymin” value was “D (D = >10- 25% remaining)” and the half-maximal degradation concentration (DC50) is < 25 nM.
In the case of `Cn1ncc(-c2ccc3c(c2)CN(C2CCC(=O)NC2=O)C3=O)c1-c1ccc(OCc2ccccc2)c(Cl)c1` (stereo not shown) [Example 81], at GSPT1 (six hours incubation), the DC50 was ≥ 25 nM and the “GSPT1 Ymin” value is on record as “F (F = >75-100% remaining)”. For the same compound, at CK1α (six hours incubation), the “CK1α Ymin” value was “E (E = >25-75% remaining)” and the 50% degradation concentration (DC50) was ≥ 25 nM.
Regarding `Cn1cnc(-c2ccc3c(c2)CN(C2CCC(=O)NC2=O)C3=O)c1-c1cc(Cl)ccc1Cl` (stereo not shown) [Example 285], at GSPT1 (six hours incubation), the 50% degradation concentration (DC50) was < 25 nM and the “GSPT1 Ymin” value is “F (F = >75-100% remaining)”. Besides, on CK1α (six hours incubation), the “CK1α Ymin” value is listed as “E (E = >25-75% remaining)” and the DC50 was < 25 nM.
With `Cc1ccc(-c2c(-c3ccc4c(c3)CN(C3CCC(=O)NC3=O)C4=O)ncn2C)cc1` (stereo not shown) [Example 227], at GSPT1 (six hours incubation), the DC50 is < 25 nM and the “GSPT1 Ymin” value is “E (E = >25-75% remaining)”. Besides, on CK1α (six hours incubation), the “CK1α Ymin” value is “D (D = >10- 25% remaining)” and the DC50 is < 25 nM.
On to `Cn1nc(-c2ccc3c(c2)CN(C2CCC(=O)NC2=O)C3=O)nc1N1CCCCC1` (stereo not shown) [Example 554, 3-(5-(1-methyl-5-(piperidin-1-yl)-1H-1,2,4-triazol-3-yl)-1-oxoisoindolin-2-yl) piperidine-2,6-dione], for which, on GSPT1 (six hours), the DC50 is ≥ 25 nM and the “GSPT1 Ymin” value was “F (F = >75-100% remaining)”. Besides, on CK1α (six hours), the “CK1α Ymin” value is given as “D (D = >10- 25% remaining)” and the DC50 is < 25 nM.
Consider `Cc1cc(-c2nc(-c3ccc4c(c3)CN(C3CCC(=O)NC3=O)C4=O)cn2C)ccc1N` (stereo not shown) [Example 558], for which, at GSPT1 (six hours), the DC50 is ≥ 25 nM and the “GSPT1 Ymin” value is given as “F (F = >75-100% remaining)”. Further, on CK1α (six hours), the “CK1α Ymin” value is on record as “C (C = 0-10% remaining)” and the DC50 was < 25 nM.
Take `Cc1ccsc1-c1c(-c2ccc3c(c2)CN(C2CCC(=O)NC2=O)C3=O)cnn1C` (stereo not shown) [Example 126]: at GSPT1 (six hours incubation), the DC50 is ≥ 25 nM and the “GSPT1 Ymin” value is “F (F = >75-100% remaining)”. Moreover, on CK1α (six hours incubation), the “CK1α Ymin” value is given as “D (D = >10- 25% remaining)” and the DC50 is < 25 nM.
In the same order, the values of `Cc1ccc(-c2c(-c3ccc4c(c3)CN(C3CCC(=O)NC3=O)C4=O)cnn2C)c(C#N)c1` (stereo not shown) [Example 109] are ≥ 25 nM, “F (F = >75-100% remaining)”, “E (E = >25-75% remaining)” and < 25 nM.
For the compound `Cn1ncc(-c2ccc3c(c2)CN(C2CCC(=O)NC2=O)C3=O)c1-c1cc(F)cc(F)c1` (stereo not shown) [Example 178], on GSPT1 (six hours incubation), the DC50 is < 25 nM and the “GSPT1 Ymin” value is given as “F (F = >75-100% remaining)”. At CK1α (six hours incubation), the “CK1α Ymin” value was “D (D = >10- 25% remaining)” and the DC50 is < 25 nM.
Regarding `Cn1cnc(-c2ccc3c(c2)CN(C2CCC(=O)NC2=O)C3=O)c1-c1ccc(Cl)c(Cl)c1` (stereo not shown) [Example 283], on GSPT1 (six hours incubation), the DC50 is ≥ 25 nM and the “GSPT1 Ymin” value is listed as “F (F = >75-100% remaining)”. Besides, at CK1α (six hours incubation), the “CK1α Ymin” value is on record as “E (E = >25-75% remaining)” and the DC50 was < 25 nM.
With `Cn1ncc(-c2ccc3c(c2)CN(C2CCC(=O)NC2=O)C3=O)c1-c1ccc(OCCCN2CCOCC2)cc1` (stereo not shown) [Example 220], at GSPT1 (six hours incubation), the DC50 is ≥ 25 nM and the “GSPT1 Ymin” value is listed as “F (F = >75-100% remaining)”. For the same compound, on CK1α (six hours incubation), the “CK1α Ymin” value is on record as “E (E = >25-75% remaining)” and the DC50 is < 25 nM.
Take `Cn1cnc(-c2ccc3c(c2)CN(C2CCC(=O)NC2=O)C3=O)c1C1CCOC1` (stereo not shown) [Example 597]: on GSPT1 (six hours), the DC50 is ≥ 25 nM and the “GSPT1 Ymin” value is recorded as “F (F = >75-100% remaining)”. Besides, on CK1α (six hours), the “CK1α Ymin” value was “E (E = >25-75% remaining)” and the DC50 was ≥ 25 nM.
As to `Cn1nc(-c2ccc3c(c2)CN(C2CCC(=O)NC2=O)C3=O)cc1-c1cncnc1` (stereo not shown) [Example 533], at GSPT1 (six hours), the DC50 was ≥ 25 nM and the “GSPT1 Ymin” value was “F (F = >75-100% remaining)”. Further, on CK1α (six hours), the “CK1α Ymin” value is given as “E (E = >25-75% remaining)” and the DC50 was ≥ 25 nM.
For `Cn1cnc(-c2ccc3c(c2)CN(C2CCC(=O)NC2=O)C3=O)c1-c1ccc(Cl)c(C#N)c1` (stereo not shown) [Example 270], on GSPT1 (six hours incubation), the DC50 is ≥ 25 nM and the “GSPT1 Ymin” value is given as “F (F = >75-100% remaining)”. For the same compound, on CK1α (six hours incubation), the “CK1α Ymin” value is given as “D (D = >10- 25% remaining)” and the DC50 is < 25 nM.
The like results for `Cn1cc(-c2c(-c3ccc4c(c3)CN(C3CCC(=O)NC3=O)C4=O)cnn2C)cc1C#N` (stereo not shown) [Example 375] were, in that order, ≥ 25 nM, “F (F = >75-100% remaining)”, “D (D = >10- 25% remaining)” and < 25 nM.
The like results for `Cn1cnc(-c2ccc3c(c2)CN(C2CCC(=O)NC2=O)C3=O)c1-c1ccnn1C` (stereo not shown) [Example 318] were, in that order, < 25 nM, “F (F = >75-100% remaining)”, “E (E = >25-75% remaining)” and < 25 nM.
For `Cn1ccc(-c2c(-c3ccc4c(c3)CN(C3CCC(=O)NC3=O)C4=O)cnn2C)c1` (stereo not shown) [Example 363], on GSPT1 (six hours incubation), the DC50 is < 25 nM and the “GSPT1 Ymin” value is reported as “F (F = >75-100% remaining)”. For the same compound, on CK1α (six hours incubation), the “CK1α Ymin” value is “C (C = 0-10% remaining)” and the DC50 was < 25 nM.

Broadly, the DC50 is the midpoint of the concentration-degradation curve. A low value points to a more potent degrader.
